Data reported in patent US20240182460A1, “ALLOSTERIC CHROMENONE INHIBITORS OF PHOSPHOINOSITIDE 3-KINASE (PI3K) FOR THE TREATMENT OF DISEASE” (PETRA PHARMA CORPORATION, priority 2022, published 2024).

Assay: Metabolic stability and intrinsic clearance in human liver microsomes (MICS)
Type: in vitro ADME
Settings: human, microsomes, pH 7.4
Method: Metabolic Stability and Intrinsic Clearance in Liver Microsomes (MICS)
One objective of this assay is to measure in vitro metabolic stability of a test compound in liver microsomes of one or more different species. The concentration of a control compound in the reaction system is evaluated by LC/MS/MS for calculating intrinsic clearance of a test compound and estimating the stability of the control compound and test compound in liver microsomes of one or more different species.
Microsomes (MICS). Human Liver Microsomes (HLM), Monkey Liver Microsomes (MKLM), Dog Liver Microsomes (DLM), Rat Liver Microsomes (RLM), and Mouse Liver Microsomes (MLM) are obtained at a concentration of 20 mg/mL protein from commercial sources and stored in a −80° C. freezer. Prior to use, liver microsomes are removed from the freezer and allowed to thaw in a 37° C. water bath and then stored on wet ice.
Stock Solutions. Test Compound (TC) Stock Solutions are prepared in DMSO at a concentration of 10 mM and stored for later use. Positive Control (PC) Stock Solutions of verapamil·HCL (FW: 491.1 g/mol) in DMSO are prepared at a concentration of 10 mM (4.91 mg/mL), and stored at the condition same as the stock solutions of test compounds.
Phosphate Buffer. Phosphate Buffer (100 mM, pH 7.4) is prepared by combining a Solution A and a Solution B as follows.
To prepare Solution A, 7.098 g of disodium hydrogen phosphate was combined with 500 mL of pure water and sonicated to dissolve. To prepare the Solution B, 3.400 g of potassium dihydrogen phosphate was combined with 250 mL of pure water and sonicated to dissolve. Solution A was placed on a stirrer and Solution B was slowly added into Solution A until the pH reached 7.4.
NADPH Solution. A 10 mM NADPH Solution is prepared by dissolving NADPH (MW: 833.4 g/mol) at 8.334 mg/mL in phosphate buffer (100 mM, pH 7.4).
Microsome Master Solution. A Microsome Master Solution is prepared by adding 6.25 μL microsomes (20 mg/mL) to 216.25 μL Phosphate Buffer (100 mM). The final concentration is Phosphate Buffer (100 mM); microsomes (0.5 mg/mL).
Dilution of Stock Solutions. The TC Stock Solutions (10 mM in DMSO) and the PC Stock Solutions (10 mM in DMSO) are diluted by adding 3 μL of the TC Stock Solution or the PC Stock Solution to 297 μL of 50% acetonitrile/50% water.
Incubation. Two separated experiments were performed as follows. a) With Cofactors (NADPH): 25 μL of 10 mM NADPH was added to the incubations. The final concentrations of
microsomes and NADPH were 0.5 mg/mL and 1 mM, respectively. b) Without Cofactors (NADPH): 25 μL of 100 mM Phosphate buffer was added to the incubations. The final concentration of microsomes was 0.5 mg/mL. The mixture was pre-warmed at 37° C. for 10 minutes.
The reaction was started with the addition of 2.5 μL of 100 μM PC solution or TC solutions.
Verapamil was used as PC in this study. The final concentration of test compound or control compound was 1 μM. The incubation solution was incubated in water batch at 37° C.
Reaction Termination. Aliquots of 30 μL were taken from the reaction solution at 0.5, 5, 15, 30 and 60 minutes and added to plates. The reaction was stopped by the addition of 5 volumes of cold acetonitrile and a solution containing 100 nM alprazolam, 200 nM caffeine and 100 nM tolbutamide.
Sampling. The plates containing the terminated reactions were centrifuged at 4000 rpm for 30 minutes. Supernatant of each compound (40 μL) was transferred into a 96-well analysis plate.
Four compound samples are pooled together into one cassette and diluted by adding 160 μL of pure water. All incubations are performed in duplicate.
Analysis and Data Processing. Quantitative LC-MS analysis is performed, and peak areas are determined from extracted ion chromatograms. Percent parent remaining was calculated from peak area of TC or PC. The slope value, k, is determined by linear regression of the natural logarithm of percent parent remaining vs. incubation time curve. […]

| SMILES | microsomal CLint at 1 μM [µL/min/mg] |
| --- | --- |
| Cc1cc([C@@H](C)Oc2ccc(Cl)nc2C(N)=O)c2oc(-c3cnn4cccnc34)c(C)c(=O)c2c1 [Example 16B, 6-Chloro-3-[(1R)-1-(3,6-dimethyl-4-oxo-2-pyrazolo[1,5-a]pyrimidin-3-yl-chromen-8-yl)ethoxy]pyridine-2-carboxamide] | < 50 |
| Cc1cc([C@@H](C)Oc2ccc(Cl)nc2-c2noc(=O)[nH]2)c2oc(-c3ccc4nn(C)cc4c3)c(C)c(=O)c2c1 [Example 18A, 3-[6-Chloro-3-[(1R)-1-[3,6-dimethyl-2-(2-methylindazol-5-yl)-4-oxo-chromen-8-yl]ethoxy]-2-pyridyl]-4H-1,2,4-oxadiazol-5-one] | < 50 |
| Cc1cc([C@@H](C)Oc2ccc(Cl)nc2S(N)(=O)=O)c2oc(-c3cnn(C)c3C#N)c(C)c(=O)c2c1 [Example 21C, 6-Chloro-3-[(1R)-1-[2-(5-cyano-1-methyl-pyrazol-4-yl)-3,6-dimethyl-4-oxo-chromen-8-yl]ethoxy]pyridine-2-sulfonamide] | < 50 |
| Cc1cc([C@@H](C)Oc2ccc(Cl)nc2C(=O)NOC(C)(C)C)c2oc(-c3ccc4nn(C)cc4c3)c(C)c(=O)c2c1 [Example 27A, N-tert-Butoxy-6-chloro-3-[(1R)-1-[3,6-dimethyl-2-(2-methylindazol-5-yl)-4-oxo-chromen-8-yl]ethoxy]pyridine-2-carboxamide] | < 50 |
| Cc1cc([C@@H](C)Oc2cccnc2C(=O)NOC(C)(C)C)c2oc(-c3ccc4nn(C)cc4c3)c(C)c(=O)c2c1 [Example 24A, N-tert-Butoxy-3-[(1R)-1-[3,6-dimethyl-2-(2-methylindazol-5-yl)-4-oxo-chromen-8-yl]ethoxy]pyridine-2-carboxamide] | < 50 |
| Cc1cc([C@@H](C)Oc2ccc(Cl)nc2S(N)(=O)=O)c2oc(-c3cncnc3)c(C)c(=O)c2c1 [Example 38A, 6-Chloro-3-[(1R)-1-(3,6-dimethyl-4-oxo-2-pyrimidin-5-yl-chromen-8-yl)ethoxy]pyridine-2-sulfonamide] | < 50 |
| Cc1cc([C@@H](C)Oc2ccc(Cl)nc2S(N)(=O)=O)c2oc(-c3cnc(C)o3)c(C)c(=O)c2c1 [Example 10C, 6-Chloro-3-[(1R)-1-[3,6-dimethyl-2-(2-methyloxazol-5-yl)-4-oxo-chromen-8-yl]ethoxy]pyridine-2-sulfonamide] | < 50 |
| Cc1cc([C@@H](C)Oc2ccc(F)c(F)c2C(N)=O)c2oc(-c3cnn(C)c3)c(C)c(=O)c2c1 [Example 31A, 6-[(1R)-1-[3,6-Dimethyl-2-(1-methylpyrazol-4-yl)-4-oxo-chromen-8-yl]ethoxy]-2,3-difluoro-benzamide] | < 50 |

More lines, now with the values ahead:

| microsomal CLint at 1 μM [µL/min/mg] | SMILES |
| --- | --- |
| < 50 | Cc1cc([C@@H](C)Oc2ccc(Cl)nc2S(N)(=O)=O)c2oc(-c3cnn(C)c3)c(Cl)c(=O)c2c1 (single isomer, unassigned) [Example 111C] |
| < 50 | Cc1cc([C@@H](C)Oc2ccc(Cl)nc2C(N)=O)c2oc(-c3cnc4nn(C)cc4c3)c(C)c(=O)c2c1 [Example 137A, 6-Chloro-3-[(1R)-1-[3,6-dimethyl-2-(2-methylpyrazolo[3,4-b]pyridin-5-yl)-4-oxo-chromen-8-yl]ethoxy]pyridine-2-carboxamide] |
| < 50 | Cc1cc([C@@H](C)Oc2ccccc2S(N)(=O)=O)c2oc(-c3cnn(C)c3)c(C)c(=O)c2c1 [Example 103C, 2-[(1R)-1-[3,6-Dimethyl-2-(1-methylpyrazol-4-yl)-4-oxo-chromen-8-yl]ethoxy]benzenesulfonamide] |
| < 50 | Cc1cc([C@@H](C)Oc2ccc(Cl)nc2C(N)=O)c2oc(-c3cc4cn(C)nc4cc3F)c(C)c(=O)c2c1 [Example 42C, 6-Chloro-3-[(1R)-1-[2-(6-fluoro-2-methyl-indazol-5-yl)-3,6-dimethyl-4-oxo-chromen-8-yl]ethoxy]pyridine-2-carboxamide] |
| < 50 | COc1cc(-c2oc3c([C@@H](C)Oc4ccc(Cl)nc4C(N)=O)cc(C)cc3c(=O)c2C)cc2cn(C)nc12 [Example 44C, 6-Chloro-3-[(1R)-1-[2-(7-methoxy-2-methyl-indazol-5-yl)-3,6-dimethyl-4-oxo-chromen-8-yl]ethoxy]pyridine-2-carboxamide] |
| < 50 | Cc1cc([C@@H](C)Oc2ccc(Cl)nc2-c2noc(=O)[nH]2)c2oc(-c3cnc4c(c3)OCCO4)c(C)c(=O)c2c1 [Example 47A, 3-[6-Chloro-3-[(1R)-1-[2-(2,3-dihydro-[1,4]dioxino[2,3-b]pyridin-7-yl)-3,6-dimethyl-4-oxo-chromen-8-yl]ethoxy]-2-pyridyl]-4H-1,2,4-oxadiazol-5-one] |
| < 50 | Cc1cc([C@@H](C)Oc2ccc(Cl)nc2C(N)=O)c2oc(-c3cnc4oc(C)nc4c3)c(C)c(=O)c2c1 [Example 130A, 6-Chloro-3-[(1R)-1-[3,6-dimethyl-2-(2-methyloxazolo[5,4-b]pyridin-6-yl)-4-oxo-chromen-8-yl]ethoxy]pyridine-2-carboxamide] |

Same assay, conditions: pH 7.4; human liver microsomes 0.5 mg/mL, 1 μM compound; read-out: intrinsic clearance in human MICS

| microsomal CLint at 1 μM [µL/min/mg] | SMILES |
| --- | --- |
| < 50 | Cc1cc([C@@H](C)Oc2cccnc2-c2noc(=O)[nH]2)c2oc(-c3ccccc3)c(C)c(=O)c2c1 [Example 3, 3-[3-[(1R)-1-(3,6-Dimethyl-4-oxo-2-phenyl-chromen-8-yl)ethoxy]-2-pyridyl]-4H-1,2,4-oxadiazol-5-one] |
| < 50 | Cc1cc([C@@H](C)Oc2cccc(F)c2-c2noc(=O)[nH]2)c2oc(-c3ccccc3)c(C)c(=O)c2c1 [Example 5, 3-[2-[(1R)-1-(3,6-Dimethyl-4-oxo-2-phenyl-chromen-8-yl)ethoxy]-6-fluoro-phenyl]-4H-1,2,4-oxadiazol-5-one] |
| < 50 | Cc1cc([C@@H](C)Oc2ccc(Cl)nc2C(=O)NS(C)(=O)=O)c2oc(-c3ccccc3)c(C)c(=O)c2c1 [Example 6, 6-Chloro-3-[(1R)-1-(3,6-dimethyl-4-oxo-2-phenyl-chromen-8-yl)ethoxy]-N-methylsulfonyl-pyridine-2-carboxamide] |
